From patent US11021444B2, “Antiviral compounds” (priority 2013, dated 2021)
Where two headings read alike, the source gives them in different places.

Key:
[1] = system: Respiratory Syncytial Virus (RSV) long strain; assay: microbe, parasite or virus in culture; format: cell-based; conditions: human respiratory syncytial virus, Tables A and B list compounds by EC50 band
Procedure, shortened: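 CPE-reduction format: viability measured colorimetrically with CCK-8 (450 nm, 630 nm reference) after 3-4 h, following 5-day infection at 37 °C, 5% CO2. Cells were HEp-2; inoculum 100 TCID50/well; duplicate 9-point 1/3 series starting at 100 μM or 1 μM.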

[2] = Cytotoxicity Determination (CCK-8, without addition of virus); format: cell-based; conditions: human
Procedure, shortened: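 Cytotoxicity was measured by CCK-8 after 3-4 hours at 37 °C, following 5 days of uninfected exposure at 37 °C and 5% CO2. Compounds ran as duplicate 7-point 1/2 dilutions starting at 100 μM, with 1% final DMSO. HEp-2 cells had been plated at 1,500/well the day before.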

recombinant RSV complex = recombinant RSV complex (Human respiratory syncytial virus A, UniProt P28887); assay: RSV Polymerase Inhibition Assay; format: biochemical
Procedure, shortened: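 Inhibition measured as reduced incorporation of radiolabel into RNA products, detected by scintillation counting. Reactions: recombinant RSV complex (10 nM), RNA oligonucleotides, Tris-HCl pH 7.5, 6 mM MgCl2, inhibitor titration, 2 h at 30 °C, EDTA stop.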

RSV replicon = assay: microbe, parasite or virus in culture; format: cell-based; conditions: human respiratory syncytial virus, read-out: EC50, the concentration of the drug required for reducing RSV replicon RNA by 50%
[3] = HEp-2, 120 h, read-out: 50% effective concentration (EC50), HEp-2 cells infected with RSV long strain, 5 days, CCK-8 readout
[4] = 50% cytotoxicity concentration (CC50)
[5] = 120 h, read-out: 50% effective concentration (EC50), HEp-2 cells infected with RSV long strain, 5 days, CCK-8 readout

recombinant RSV complex, sequence (P28887 whole entry): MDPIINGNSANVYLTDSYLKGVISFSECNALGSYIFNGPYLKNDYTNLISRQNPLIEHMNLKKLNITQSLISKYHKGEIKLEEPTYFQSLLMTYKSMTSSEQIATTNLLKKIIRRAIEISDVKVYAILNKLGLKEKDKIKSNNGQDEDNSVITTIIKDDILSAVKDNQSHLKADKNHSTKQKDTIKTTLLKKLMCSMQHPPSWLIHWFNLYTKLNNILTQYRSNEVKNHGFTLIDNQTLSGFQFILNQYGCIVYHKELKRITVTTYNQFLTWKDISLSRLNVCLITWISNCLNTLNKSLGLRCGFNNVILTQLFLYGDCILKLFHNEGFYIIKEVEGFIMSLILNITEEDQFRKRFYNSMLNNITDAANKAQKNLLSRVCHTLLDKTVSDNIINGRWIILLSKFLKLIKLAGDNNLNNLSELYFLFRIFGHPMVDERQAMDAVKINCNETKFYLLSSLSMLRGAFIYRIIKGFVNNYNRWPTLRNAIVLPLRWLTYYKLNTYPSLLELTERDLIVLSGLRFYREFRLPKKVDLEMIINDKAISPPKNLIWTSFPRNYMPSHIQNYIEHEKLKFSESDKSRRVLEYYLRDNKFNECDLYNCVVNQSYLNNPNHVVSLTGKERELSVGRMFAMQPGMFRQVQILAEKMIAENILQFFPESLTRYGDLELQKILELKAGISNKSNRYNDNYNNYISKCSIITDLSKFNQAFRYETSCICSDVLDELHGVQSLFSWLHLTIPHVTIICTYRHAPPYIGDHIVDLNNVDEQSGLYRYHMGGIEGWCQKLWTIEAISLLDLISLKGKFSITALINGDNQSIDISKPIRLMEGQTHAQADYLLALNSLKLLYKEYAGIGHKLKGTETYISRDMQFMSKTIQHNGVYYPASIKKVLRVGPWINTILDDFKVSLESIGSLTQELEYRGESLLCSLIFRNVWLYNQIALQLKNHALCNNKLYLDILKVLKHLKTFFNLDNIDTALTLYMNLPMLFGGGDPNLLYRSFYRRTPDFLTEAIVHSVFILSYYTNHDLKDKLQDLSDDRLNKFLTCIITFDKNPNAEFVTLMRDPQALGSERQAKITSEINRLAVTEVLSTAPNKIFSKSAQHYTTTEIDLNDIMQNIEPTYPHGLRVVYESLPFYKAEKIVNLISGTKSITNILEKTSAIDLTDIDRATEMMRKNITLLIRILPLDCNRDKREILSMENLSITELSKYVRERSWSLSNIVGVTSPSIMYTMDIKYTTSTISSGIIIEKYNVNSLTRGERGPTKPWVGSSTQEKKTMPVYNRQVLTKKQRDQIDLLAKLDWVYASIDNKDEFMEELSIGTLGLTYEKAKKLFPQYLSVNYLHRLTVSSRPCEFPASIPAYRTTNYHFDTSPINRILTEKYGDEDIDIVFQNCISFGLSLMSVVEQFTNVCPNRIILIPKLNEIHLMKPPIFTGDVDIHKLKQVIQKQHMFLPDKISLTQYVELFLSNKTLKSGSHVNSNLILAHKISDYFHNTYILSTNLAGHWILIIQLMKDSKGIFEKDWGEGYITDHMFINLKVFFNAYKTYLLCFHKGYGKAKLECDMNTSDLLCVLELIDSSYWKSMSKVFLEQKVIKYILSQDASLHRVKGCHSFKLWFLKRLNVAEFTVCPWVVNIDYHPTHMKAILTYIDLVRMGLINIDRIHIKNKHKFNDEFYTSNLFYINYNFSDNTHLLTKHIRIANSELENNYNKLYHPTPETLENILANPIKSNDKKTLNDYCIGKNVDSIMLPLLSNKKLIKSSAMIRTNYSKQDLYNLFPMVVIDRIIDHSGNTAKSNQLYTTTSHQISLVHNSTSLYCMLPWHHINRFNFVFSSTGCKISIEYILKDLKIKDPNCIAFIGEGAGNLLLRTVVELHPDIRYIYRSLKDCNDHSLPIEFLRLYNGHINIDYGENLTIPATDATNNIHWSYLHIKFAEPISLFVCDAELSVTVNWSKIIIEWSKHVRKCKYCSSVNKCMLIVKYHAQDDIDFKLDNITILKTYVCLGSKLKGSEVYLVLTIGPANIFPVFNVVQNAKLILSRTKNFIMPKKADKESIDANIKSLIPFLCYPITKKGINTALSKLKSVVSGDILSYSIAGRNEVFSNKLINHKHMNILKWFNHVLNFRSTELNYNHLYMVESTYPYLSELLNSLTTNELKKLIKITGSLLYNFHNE
recombinant RSV complex, sequence (P03421 whole entry, further chain): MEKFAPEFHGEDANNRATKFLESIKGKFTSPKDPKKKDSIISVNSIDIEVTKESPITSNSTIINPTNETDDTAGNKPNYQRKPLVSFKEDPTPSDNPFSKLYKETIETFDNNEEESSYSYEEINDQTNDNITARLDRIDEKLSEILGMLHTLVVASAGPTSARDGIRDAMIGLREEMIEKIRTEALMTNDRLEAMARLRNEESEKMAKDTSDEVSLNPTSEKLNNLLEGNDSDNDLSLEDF

| Structure (SMILES) | EC50 [1, 3] [nM] | CC50 at 5 days [2, 4] [nM] | IC50 (recombinant RSV complex) [nM] | EC50 (RSV replicon) [nM] | CC50 at 5 days ([2]; no virus, 5 days, CCK-8 readout, Tables C and D list compounds by CC50 band) [nM] | EC50 [1, 5] [nM] |
| --- | --- | --- | --- | --- | --- | --- |
| COc1cc(C(=O)NCC(O)(c2ccc(OC)c(-c3ccc(F)c(Cl)c3)n2)C(F)(F)F)ccc1OC1CCNC1=O (centres unmarked) [Compound 349] | < 1000 | 10000 to 100000 | < 1000 | < 1000 |  |  |
| COc1cc(C(=O)NCC(C)(O)c2cc(C(C)(C)N)cc(-c3ccc(F)cc3)n2)ccc1OC1CC1 (centres unmarked) [Compound 574] | < 1000 | 10000 to 100000 | < 1000 | < 1000 |  |  |
| COc1cc(C(=O)NC[C@@](O)(c2cc(C(C)(C)N)cc(-c3ccc(F)cc3)n2)C(F)(F)F)ccc1OC[C@@H](C)O [Compound 545] | < 1000 | 10000 to 100000 | < 1000 | < 1000 |  |  |
| COc1cc(C(=O)NCC(O)(c2ccc(OC)c(-c3ccc(F)c(Cl)c3)n2)C(F)F)ccc1OCCO (centres unmarked) [Compound 436] | < 1000 | 10000 to 100000 | < 1000 | < 1000 |  |  |
| COc1cc(C(=O)NCC(O)(c2cc(C(C)(C)N)cc(-c3ccc(F)c(Cl)c3)n2)C(F)(F)F)ccc1OCC(N)=O (centres unmarked) [Compound 322] | < 1000 | 10000 to 100000 | < 1000 | < 1000 |  |  |
| COc1ccc(C(O)(CNC(=O)c2ccc(OCC(N)=O)c(Cl)c2)C(F)(F)F)nc1-c1ccc(F)c(Cl)c1 (centres unmarked) [Compound 237] | < 1000 | 10000 to 100000 | < 1000 | < 1000 |  |  |
| COc1cc(C(=O)NCC(O)(c2cc(C(C)(C)N)cc(-c3ccc(F)c(Cl)c3)n2)C(F)(F)F)ccc1O[C@H]1CCNC1=O (some centres unmarked) [Compound 283] | < 1000 | 10000 to 100000 | < 1000 | < 1000 |  |  |
| COc1cc(C(=O)NCC(O)(Cn2ccnn2)c2ccc(OC)c(-c3ccc(F)c(Cl)c3)n2)ccc1OCCO (centres unmarked) [Compound 192] | < 1000 | > 100000 | < 1000 | < 1000 |  |  |
| COc1cc(C(=O)NCC(O)(c2cc3c(c(-c4ccc(F)cc4)n2)OCC3(C)N)C(F)(F)F)ccc1OCC(N)=O (centres unmarked) [Compound 543] | < 1000 | 10000 to 100000 | < 1000 | < 1000 |  |  |
| COc1cc(C(=O)NCC(O)(c2cc3c(c(-c4ccc(Cl)cc4)n2)OCC3(C)N)C(F)(F)F)ccc1CO[C@@H](C)O (some centres unmarked) [Compound 646] | < 1000 | 10000 to 100000 | < 1000 | < 1000 |  |  |
| COc1cc(C(=O)NCC(O)(c2cc(C(C)(C)N)cc(-c3ccc(F)c(Cl)c3)n2)C(F)(F)F)ccc1OCC(C)(C)O (centres unmarked) [Compound 396] | < 1000 | 10000 to 100000 | < 1000 | < 1000 |  |  |
| COc1cc(C(=O)NCC(C)(F)c2ccc(OC)c(-c3ccc(F)c(Cl)c3)n2)ccc1OCCF (centres unmarked) [Compound 364] | < 1000 | 10000 to 100000 | < 1000 | < 1000 |  |  |
| COc1cc(C(=O)NCC(O)(c2ccc(OC)c(-c3ccc(F)c(Cl)c3)n2)C(F)(F)F)ccc1OC1CC(F)(F)C1 (centres unmarked) [Compound 244] | < 1000 | > 100000 | < 1000 | < 1000 |  |  |
| COc1cc(C(=O)NCC(O)(c2ccc(OC)c(-c3ccc(F)c(Cl)c3)n2)C(C)C)ccc1OCCF (centres unmarked) [Compound 125] | < 1000 | 10000 to 100000 | < 1000 | < 1000 |  |  |
| COc1cc(C(=O)NCC(O)(c2cc(C(C)N)cc(-c3ccc(F)c(Cl)c3)n2)C(F)(F)F)ccc1OC1CC1 (centres unmarked) [Compound 459] | < 1000 |  | < 1000 | < 1000 | 10000 to 100000 |  |
| COc1cc(C(=O)NCC(O)(c2cc(C(C)(N)CF)cc(-c3ccc(F)cc3)n2)C(F)(F)F)ccc1OC[C@@H](C)O (some centres unmarked) [Compound 614] | < 1000 | 10000 to 100000 | < 1000 | < 1000 |  |  |
| COc1cc(C(=O)NCC(O)(c2ccc(OC)c(-c3ccc(F)c(Cl)c3)n2)C2CC2)ccc1OCC(N)=O (single isomer, unassigned) [Compound 431] | < 1000 | 10000 to 100000 | < 1000 | < 1000 |  |  |
| COc1cc(C(=O)NCC(O)(c2cc(C(C)(C)NC(C)=O)cc(-c3ccc(F)c(Cl)c3)n2)C(F)(F)F)ccc1OCC(N)=O (centres unmarked) [Compound 612] | < 1000 | > 100000 | < 1000 | < 1000 |  |  |
| CC(C)(N)c1cc(-c2ccc(F)cc2)nc(C(O)(CNC(=O)c2ccc(OC3CC3)c(CO)c2)C(F)(F)F)c1 (centres unmarked) [Compound 644] | < 1000 | 10000 to 100000 | < 1000 | < 1000 |  |  |

| Structure (SMILES) | EC50 [1, 3] [nM] | CC50 at 5 days [2, 4] [nM] | IC50 (recombinant RSV complex) [nM] | EC50 (RSV replicon) [nM] | CC50 at 5 days ([2]; no virus, 5 days, CCK-8 readout, Tables C and D list compounds by CC50 band) [nM] | EC50 [1, 5] [nM] |
| --- | --- | --- | --- | --- | --- | --- |
| COc1cc(C(=O)NCC(O)(c2cc3c(c(-c4ccc(F)cc4)n2)OCC3(C)N)C(F)(F)F)cc2cccnc12 (centres unmarked) [Compound 635] | < 1000 | 10000 to 100000 | < 1000 | < 1000 |  |  |
| CNC(C)(C)c1cc(-c2ccc(F)c(Cl)c2)nc(C(O)(CNC(=O)c2cc(OC)c3ncccc3c2)C(F)(F)F)c1 (centres unmarked) [Compound 488] | < 1000 | 10000 to 100000 | < 1000 | < 1000 |  |  |
| COc1cc(C(=O)NC[C@](O)(c2cc(C(C)(C)N)cc(-c3ccc(F)c(Cl)c3)n2)C(F)(F)F)ccc1OC[C@@H](C)O [Compound 552] | < 1000 | 10000 to 100000 | < 1000 | < 1000 |  |  |
| COc1cc(C(=O)NCC(O)(c2ccc(OC)c(-c3ccc(F)c(Cl)c3)n2)C(F)(F)F)ccc1OC1CC(F)C1 (centres unmarked) [Compound 470] |  | > 100000 | < 1000 | < 1000 |  | < 1000 |
| COc1cc(C(=O)NCC(O)(c2cc(C(C)(C)N)cc(-c3ccc(F)c(Cl)c3)n2)C(F)(F)F)ccc1OCS(N)(=O)=O (centres unmarked) [Compound 637] | 1000 to 50000 | 10000 to 100000 | < 1000 | < 1000 |  |  |
| CC(C)(N)c1cc(-c2ccc(F)cc2)nc(C(O)(CNC(=O)c2ccc3c(c2)CC(=O)N3)C(F)(F)F)c1 (centres unmarked) [Compound 571] | < 1000 | 10000 to 100000 | < 1000 | < 1000 |  |  |
| COc1cc(C(=O)NC[C@](O)(c2cc(C(C)(C)N)cc(-c3ccc(F)cc3)n2)C(F)(F)F)ccc1OC1CC1 [Compound 496] | < 1000 | 10000 to 100000 | < 1000 | < 1000 |  |  |
| COc1cc(C(=O)NCC(O)(c2ccc(OC)c(-c3ccc(F)c(Cl)c3)n2)C(F)(F)F)ccc1OC1(C)CC1 (centres unmarked) [Compound 249] | < 1000 | 10000 to 100000 | < 1000 | < 1000 |  |  |
| COc1cc(C(=O)NCC(O)(c2ccc(OC)c(-c3ccc(F)c(Cl)c3)n2)C(F)(F)F)ccc1OC1COC1 (centres unmarked) [Compound 250] |  | 10000 to 100000 | < 1000 | < 1000 |  | < 1000 |
| COc1cc(C(=O)NCC(=O)c2cc3c(c(-c4ccc(F)c(C(C)F)c4)n2)OCCC3(C)C)ccc1OCCO (centres unmarked) [Compound 298] | < 1000 | 10000 to 100000 | < 1000 | < 1000 |  |  |
| COc1cc(C(=O)NCC(O)(c2ccc(OC)c(-c3ccc(F)c(Cl)c3)n2)C2CC2)ccc1OCCO (centres unmarked) [Compound 241] | < 1000 | 10000 to 100000 | < 1000 | < 1000 |  |  |
| COc1cc(C(=O)NCC(O)(c2cc(C(C)(N)CO)cc(-c3ccc(F)c(Cl)c3)n2)C(F)(F)F)ccc1OC1CC1 (centres unmarked) [Compound 533] | < 1000 | 10000 to 100000 | < 1000 | < 1000 |  |  |
| COc1cc(C(=O)NCC(O)(c2cc(C(C)(C)NC(C)=O)cc(-c3ccc(F)cc3)n2)C(F)(F)F)ccc1OCC(N)=O (centres unmarked) [Compound 621] | < 1000 | > 100000 | < 1000 | < 1000 |  |  |
| COc1cc(C(=O)NCC(O)(c2cc3c(c(-c4ccc(F)c(Cl)c4)n2)OCC3(C)C)C(F)(F)F)ccc1OCC(C)O (centres unmarked) [Compound 211] | < 1000 | 10000 to 100000 | < 1000 | < 1000 |  |  |
| COc1cc(C(=O)NCC(C)(O)c2ccc(OC)c(-c3ccc(F)c(Br)c3)n2)ccc1OCCF (racemic) [Compound 118] | < 1000 | 10000 to 100000 | < 1000 | < 1000 |  |  |
| COc1cc(C(=O)NCC(O)(c2cc3c(c(-c4ccc(F)c(C(F)(F)F)c4)n2)OCC3(C)N)C(F)(F)F)ccc1CO[C@@H](C)O (some centres unmarked) [Compound 665] | < 1000 | 10000 to 100000 | < 1000 | < 1000 |  |  |
| COc1cc(C(=O)NCC(O)(c2cc(C3(C)CCNC3)cc(-c3ccc(F)cc3)n2)C(F)(F)F)ccc1OC1CC1 (centres unmarked) [Compound 507] | < 1000 | 10000 to 100000 | < 1000 | < 1000 |  |  |
| COc1cc(C(=O)NCC(O)(c2cc(C(C)(C)NC3COC3)cc(-c3ccc(F)c(Cl)c3)n2)C(F)(F)F)ccc1OC1CC1 (centres unmarked) [Compound 577] | < 1000 | 10000 to 100000 | < 1000 | < 1000 |  |  |
| COc1cc(C(=O)NCC(=O)c2cc3c(c(-c4ccc(F)c(Cl)c4)n2)OCC3(C)C)cc2cccnc12 [Compound 220] |  | > 100000 | < 1000 | 1000 to 50000 |  | < 1000 |
